The assay deals with HRas-GTP (Homo sapiens, UniProt P01112). Description: SPR. Format: binding.

SMILES strings stand for the structures.

Broadly, the Kd is the concentration at which binding is half-saturated.

Sequence of HRas-GTP (P01112 1-186): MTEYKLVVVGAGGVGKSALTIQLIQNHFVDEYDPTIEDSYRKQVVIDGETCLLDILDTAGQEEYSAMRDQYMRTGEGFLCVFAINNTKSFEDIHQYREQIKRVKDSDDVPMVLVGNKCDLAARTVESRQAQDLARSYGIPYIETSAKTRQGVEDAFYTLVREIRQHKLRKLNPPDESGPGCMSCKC

`C[C@@]12C3=CC(=O)OCC3=C[C@H]3OC(=O)[C@](C)([C@H]31)[C@@H](O)[C@H]1O[C@H]12` [WA, Wentilactone A]: the Kd was 15.7 µM.
